These results are taken from paper PMC9502272, “A Metabolomics Approach for Predicting OATP1B-Type Transporter-Mediated Drug–Drug Interaction Liabilities” (Pharmaceutics, 2022).

The structures appear in SMILES notation. Where a name gives a salt, the structure may show the parent alone.

This data set concerns the target T1, Oatp1b2 (Mus musculus, UniProt Q9JJL3).
T1 sequence (Q9JJL3 1-689): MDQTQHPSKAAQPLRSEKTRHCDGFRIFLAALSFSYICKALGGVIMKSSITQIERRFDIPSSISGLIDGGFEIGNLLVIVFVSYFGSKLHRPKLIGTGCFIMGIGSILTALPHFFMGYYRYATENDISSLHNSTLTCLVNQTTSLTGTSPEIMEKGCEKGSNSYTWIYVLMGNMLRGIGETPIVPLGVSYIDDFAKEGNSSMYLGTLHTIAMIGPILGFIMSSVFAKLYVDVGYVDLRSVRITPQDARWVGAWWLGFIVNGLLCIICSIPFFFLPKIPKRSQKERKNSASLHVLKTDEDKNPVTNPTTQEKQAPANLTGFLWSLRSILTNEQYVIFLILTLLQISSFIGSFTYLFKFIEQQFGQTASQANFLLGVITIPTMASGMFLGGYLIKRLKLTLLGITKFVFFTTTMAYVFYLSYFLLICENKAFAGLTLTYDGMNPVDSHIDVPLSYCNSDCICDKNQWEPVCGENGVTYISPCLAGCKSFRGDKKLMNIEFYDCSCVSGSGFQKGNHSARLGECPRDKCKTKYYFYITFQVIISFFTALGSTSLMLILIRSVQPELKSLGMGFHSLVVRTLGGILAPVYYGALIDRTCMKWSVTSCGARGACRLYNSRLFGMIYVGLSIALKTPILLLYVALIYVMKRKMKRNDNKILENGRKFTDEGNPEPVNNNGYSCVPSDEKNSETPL
As to the kind of experiment: Untargeted metabolomics of plasma from untreated wild-type and Oatp1b2(−/−) mice. The settings on record: for Fold of Change KO/WT: plasma of untreated Oatp1b2-deficient (KO) vs wild-type (WT) mice, semi-quantitative, positive = higher in KO, n = 6 per group; for Mean value KO: plasma of untreated Oatp1b2-deficient mice; for Mean value KO / Mean value WT: raw area counts rescaled to median = 1; for Mean value WT: plasma of untreated wild-type mice.

Turning to `CCCCCCCCCCCCCCCC(=O)OC[C@@H](O)COP(=O)([O-])OCC[N+](C)(C)C` [1-palmitoyl-GPC (16:0)], the “Fold of Change KO/WT” value is 1.29, the “Mean value KO” value is 1.12 and the “Mean value WT” value is “.868”.
For `CCCCCCCCCCCCCCCC(=O)OC[C@@H](O)COP(=O)(O)OCCN` [1-palmitoyl-GPE (16:0)] the same measures were 1.73, 1.33 and “.765”.
As for `CCCCCCCCCCCCCCCC(=O)OC[C@@H](O)COP(=O)(O)OCC(O)CO` (stereo partly drawn) [1-palmitoyl-GPG (16:0)], the “Fold of Change KO/WT” value was 5.40, the “Mean value KO” value amounted to 2.00 and the “Mean value WT” value is on record as “.371”.
The matching figures for `O=C(O)Cc1cn(C2O[C@H](CO)[C@@H](O)[C@H]2O)cn1` (stereo partly drawn) [1-ribosyl-imidazoleacetate]: 1.64, 1.34 and “.818”.
For `CCCCCCCC/C=C\CCCCCCCC(=O)O[C@H](COC(=O)CCCCCCCCCCCCCCCCC)COP(=O)([O-])OCC[N+](C)(C)C` [1-stearoyl-2-oleoyl-GPC (18:0/18:1)] the same measures were 1.20, 1.07 and “.892”.
The matching figures for `CCCCCCCCCCCCCCCCCC(=O)OC[C@@H](O)COP(=O)(O)OCCN` [1-stearoyl-GPE (18:0)]: 1.34, 1.16 and “.867”.
As for `CCCCCCCCCCCCCCCCCC(=O)OC[C@@H](O)COP(=O)(O)OCC(O)CO` (stereo partly drawn) [1-stearoyl-GPG (18:0)], the “Fold of Change KO/WT” value amounted to 4.16, the “Mean value KO” value came out at 1.76 and the “Mean value WT” value is given as “.423”.
The matching figures for `CSC=CC(O)C(O)C(=O)O` (stereo not drawn) [2,3-dihydroxy-5-methylthio-4-pentenoate (DMTPA)]: 1.34, 1.23 and “.915”.
For `CC(C(=O)O)c1ccc(O)cc1` (stereo not drawn) [2-(4-hydroxyphenyl)propionate] the same measures were 1.30, 1.16 and “.895”.
For `COC1=C(O)[C@@H]([C@@H](O)CO)OC1=O` [2-O-methylascorbic acid] the same measures were 1.16, 1.08 and “.927”.
For `Cc1ccc(OS(=O)(=O)O)c(N)c1` [2-amino-p-cresol sulfate], the “Fold of Change KO/WT” value was 4.28, the “Mean value KO” value was 1.86 and the “Mean value WT” value is recorded as “.435”.
For the compound `CCC(C)C(O)C(=O)O` (stereo not drawn) [2-hydroxy-3-methylvalerate], the “Fold of Change KO/WT” value came to 3.15, the “Mean value KO” value is 2.33 and the “Mean value WT” value was “.738”.
For `CCCCCC/C=C\CCCCCCCC(=O)O[C@H](CO)COP(=O)([O-])OCC[N+](C)(C)C` [2-palmitoleoyl-GPC (16:1)] the same measures were 1.95, 1.36 and “.696”.
The matching figures for `CCC(CO)C(=O)O` (stereo not drawn) [3-hydroxy-2-ethylpropionate]: 1.25, 1.10 and “.879”.
For `O=C(O)CCCCCCCCC(O)CC(=O)O` (stereo not drawn) [3-hydroxydodecanedioate] the same measures were 4.32, 1.64 and “.380”.
On to `O=S(=O)(O)Oc1c[nH]c2ccccc12` [3-indoxyl sulfate], for which the “Fold of Change KO/WT” value came out at 1.48, the “Mean value KO” value was 1.19 and the “Mean value WT” value is reported as “.804”.
For `O=C(O)CCc1ccccc1.O=C(O)CCc1ccccc1` [3-phenylpropionate (hydrocinnamate)] the same measures were 1.62, 1.39 and “.855”.
On to `CC(=O)Nc1ccc(C(=O)O)cc1` [4-acetamidobenzoate], for which the “Fold of Change KO/WT” value was 2.14, the “Mean value KO” value was 1.46 and the “Mean value WT” value is given as “.685”.
For `CC(C)CCC[C@@H](C)[C@H]1CC[C@H]2[C@@H]3CCC4=CC(=O)CC[C@]4(C)[C@H]3CC[C@]12C` [4-cholesten-3-one], the “Fold of Change KO/WT” value was 1.29, the “Mean value KO” value was 1.12 and the “Mean value WT” value was “.870”.
As for `CCc1ccc(OS(=O)(=O)[O-])cc1.[K+]` [4-ethylphenylsulfate], the “Fold of Change KO/WT” value came out at 17.2, the “Mean value KO” value was 4.08 and the “Mean value WT” value was “.238”.
The matching figures for `C=Cc1ccc(OS(=O)(=O)O)cc1` [4-vinylphenol sulfate]: 1.55, 1.32 and “.847”.
For `CCCCCC/C=C\CCCC(=O)OC(CC(=O)[O-])C[N+](C)(C)C` (stereo not drawn) [5-dodecenoylcarnitine (C12:1)] the same measures were 1.46, 1.37 and “.936”.
For `Cc1cn([C@H]2C[C@H](O)[C@@H](CO)O2)c(=O)nc1N` [5-methyl-2'-deoxycytidine] the same measures were 1.83, 1.56 and “.852”.
As to `C[C@H](CCC(=O)O)[C@H]1CC[C@H]2[C@@H]3C[C@@H](O)[C@@H]4C[C@H](O)CC[C@]4(C)[C@H]3CC[C@]12C` [6-beta-hydroxylithocholate], the “Fold of Change KO/WT” value came out at 13.1, the “Mean value KO” value is listed as 1.16 and the “Mean value WT” value was “.0890”.
The matching figures for `C[C@H](CCC(=O)O)[C@H]1CC[C@H]2[C@@H]3CC(=O)[C@@H]4C[C@H](O)CC[C@]4(C)[C@H]3CC[C@]12C` [6-oxolithocholate]: 1.43, 0.970 and “.678”.
The matching figures for `CC(CCC[C@@H](C)[C@H]1CC[C@H]2[C@@H]3[C@H](O)CC4=CC(=O)CC[C@]4(C)[C@H]3CC[C@]12C)C(=O)O` (stereo partly drawn) [7-alpha-hydroxy-3-oxo-4-cholestenoate (7-Hoca)]: 1.27, 1.20 and “.944”.
The matching figures for `C[C@H](CCC(=O)O)[C@H]1CC[C@H]2[C@@H]3C(=O)C[C@@H]4C[C@H](O)CC[C@]4(C)[C@H]3C[C@H](O)[C@]12C` [7-ketodeoxycholate]: 6.23, 2.26 and “.362”.
`CC(=O)Nc1ccn([C@@H]2O[C@H](CO)[C@@H](O)[C@H]2O)c(=O)n1` [N4-acetylcytidine]: the “Fold of Change KO/WT” value is 1.36, the “Mean value KO” value was found to be 1.12 and the “Mean value WT” value is listed as “.819”.
The matching figures for `C[N+](C)(C)CCCCC(=O)[O-]` [N,N,N-trimethyl-5-aminovalerate]: 3.45, 2.06 and “.597”.
Regarding `CC(=O)N[C@@H](Cc1cncn1C)C(=O)O` [N-acetyl-3-methylhistidine], the “Fold of Change KO/WT” value amounted to 1.24, the “Mean value KO” value is given as 1.09 and the “Mean value WT” value is recorded as “.878”.
For `CC(=O)N[C@@H](CCCCNC(N)=O)C(=O)O` [N-acetylhomocitrulline] the same measures were 1.35, 1.17 and “.861”.
With `CC(=O)N[C@@H](CC(=O)c1ccccc1N)C(=O)O` [N-acetylkynurenine (2)], the “Fold of Change KO/WT” value amounted to 1.41, the “Mean value KO” value is 1.17 and the “Mean value WT” value is on record as “.827”.
For `CC(=O)N[C@@H](CC[S+](C)[O-])C(=O)O` (stereo partly drawn) [N-acetylmethionine sulfoxide] the same measures were 1.40, 1.31 and “.931”.
For `CSC[C@H](NC(=O)CC[C@H](N)C(=O)O)C(=O)NCC(=O)O` [S-methylglutathione] the same measures were 1.19, 1.11 and “.931”.
For `Nc1ncnc2c1ncn2C1OC(COP(=O)(O)O)C(O)C1O` (stereo not drawn) [adenosine 5'-monophosphate (AMP)] the same measures were 1.12, 1.04 and “.927”.
For `CC(C)CC(O)C(=O)O` (stereo not drawn) [alpha-hydroxyisocaproate], the “Fold of Change KO/WT” value is recorded as 2.29, the “Mean value KO” value stood at 1.80 and the “Mean value WT” value is “.787”.
For `CC(C)C(O)C(=O)O` (stereo not drawn) [alpha-hydroxyisovalerate] the same measures were 1.68, 1.43 and “.850”.
